Three compounds from article PMC10287183 (Antiviral Research, 2023) can be followed below.

Some results are limits rather than exact numbers.

The nature of series [1]: in vitro. The note with it: human.
A further series has as its system SARS-CoV-2 Omicron. Kind of series: microbe, parasite or virus in culture. Format: cell-based. The note with it: Severe acute respiratory syndrome coronavirus 2, read-out: EC90 (mean ± SD).
Series [2] is described as follows: in vitro. The note with it: human. This is another data set of the same source.
The subject of the next series is CatB and CatL. Kind of series: Z-Phe-Arg-AMC substrate degradation in whole cell lysates with CA-074. Type of series: biochemical. The following applies: CA-074 10 μM.

For the compound `O=[N+]([O-])c1ccc(O)c2ncccc12` [Nitroxoline, nitroxoline], the CC50 in the series “in vitro [1]” and in the series “in vitro [2]” was more than 100 µM throughout. Further, the concentration for an effect of 90% (EC90) in the series on SARS-CoV-2 Omicron stood at 6.4 ± 0.6 µM.

For the compound `CCCNC(=O)[C@H]1O[C@@H]1C(=O)N[C@H](C(=O)N1CCC[C@H]1C(=O)O)[C@@H](C)CC` [CA-074], the Z-Phe-Arg-AMC substrate degradation result with CatB and CatL (Calu-3 whole cell lysate) is recorded as “almost completely abolished”; in the series on CatB and CatL (Huh7-hACE2 whole cell lysate), “almost completely abolished”; with CatB and CatL (Vero E6 whole cell lysate), “did not reduce substrate degradation”.

Consider `CCN(CCO)CCCC(C)Nc1ccnc2cc(Cl)ccc12` (stereo not shown) [Hydroxychloroquin, Hydroxychloroquine], for which the EC90 in the series on SARS-CoV-2 Omicron worked out at 7.7 ± 1.2 µM.
